From US7226783B1, “Vanillin production” (David Michael & Co., Inc., priority 1997, dated 2007)

How the values were obtained:
Vanilla embryo culture = experiment: Feeding vanilla embryo culture with vanillin precursors, HPLC analysis of metabolites; format: cell-based, Vanilla planifolia
Text: We derived a scheme for the vanillin biosynthetic pathway by analysis of metabolites in cultured embryos and by experiments with feeding of precursors and intermediates. This scheme is shown in FIG. 1 and the experiments are described below.
Embryo cultures of Vanilla planifolia were established as described in Example 1. The procedures used to extract phenolics from the cultured embryo cells and to analyze the extracts by high pressure liquid chromatography (HPLC) were as described generally by Havkin-Frenkel et al., Plant Cell, Tissue and Organ Culture 45: 133–136 (1996).
In the extraction procedure, 3 ml of 0.05 M sodium acetate buffer, pH 5.5, was added to about 1 gram of fresh culture. Samples were placed in boiling water for three minutes, then chilled. The cells were next homogenized in a Polytron blender for 1 minute at medium speed. A β-glucosidase solution was added to the homogenized cells to give a final concentration of 0.2%. Each sample was then incubated at 37° C. for 5 hr. Next, 17 ml of 95% ethanol was added, after which incubation at 37° C. was continued for an additional 24 hrs. The extract was then filtered and the ethanol evaporated. The filtrate was extracted twice using ethyl acetate, then extracted twice with ethyl acetate acidified to pH 3 with HCl. The extracts were combined and the ethyl acetate evaporated. The residue was dissolved in 1 ml of acidified methanol and filtered with a 0.45 μm syringe filter for HPLC analysis.
Extractions of metabolites from culture medium was similar to the cell extraction protocol. Five ml of spent medium was incubated in a β-glucosidase solution at 37° C. for 24 hrs. The medium was then extracted with ethyl acetate and the organic portions combined and evaporated, as for the cell extracts.
Metabolite levels were measured with a Hewlett Packard 1090L or a Waters HPLC with a UV detector at 280 nm. The Waters HPLC was also equipped with a diode array detector to confirm the identities of the various intermediates, and the identities of the various intermediates were further confirmed by mass spectrometry. The column was a Supelco C-18 DB column of dimensions 250 mm×4.6 mm and a particle size of 5 μm. The mobile phase contained methanol and water, each of which was acidified with 1.25% acetic acid. The flow rate was 1 ml/min, with a solvent gradient as follows: […]
Results of selected experiments in which precursors or elicitors were added to vanilla cultures are set forth below. These experiments were performed in accordance with the procedures set forth in Examples 1–4.

[1] = tested on: alcohol dehydrogenase from Vanilla planifolia embryo culture (vanillyl alcohol dehydrogenase, VAD); experiment: Substrate specificity of vanillyl alcohol dehydrogenase (VAD); format: biochemical
Description: We have purified and characterized the activity of VAD that catalyze the reduction of vanillin to vanillyl alcohol. The enzyme was identified as an NADH or NADPH-dependent alcohol dehydrogenase. The purification protocol was as set forth below.
Crude enzyme extract: Tissue was homogenized in 0.05 M actetate-Na buffer pH 4.0 (in proportion, 1 g of the tissue and 5 ml of the buffer) in an ice bath, using Polytrone homogenizer, at 20,000 revolutions of the blade per min. The homogenate was centrifuged at 13000 g for 15 min at 4° C. and the supernatant served as the crude enzyme source.
Ammonium sulfate fractionation and molecular sieving: Crude enzyme extract (100 ml) was supplied with ammonium sulfate in an ice bath up to 60% of saturation (44.4 g of Ammonium sulphate per 100 ml). The precipitate was centrifuged and discarded. The supernatant was supplied with ammonium sulfate up to 90% of saturation (total 64.6 g per 100 ml of crude extract). The precipitate was collected (10 min centrifugation at 10,000 g), dissolved in 7 ml of extraction buffer and subjected to molecular sieving at Sephacryl S-300 High Load Column (LKB Pharmacia) 2.6×60 cm, in 0.1 M pH 4.0 acetate-Na buffer. The flow rate was adjusted to 1 ml/min and 5 ml fractions were collected. The protein elution profile was monitored at 280 nm. Five fractions (of a total of 50) containing dehydrogenase activity (130–155 ml of the column eluate) were collected.
The column was developed with 0.5 M Tris/HCL buffer pH 7.4 in 0.0–1.0 M NaCl gradient (total gradient volume—70 ml) and 2.5 ml fractions were collected. Vanillyl alcohol dehydrogenase was released from the column between 0.3–0.4 M NaCl. Fractions containing VAD activity were dialysed overnight against 0.05 M caetate-Na buffer pH 4.0 and concentrated up to 50 times using Minicon concentrating filters (Amicon). […]

[2] = tested on: V. planifolia tissue culture; experiment: Bio-conversion of 3,4-dihydroxybenzaldehyde to vanillin and vanillyl alcohol in tissue culture; format: cell-based, Vanilla planifolia; conditions: addition of 1–5 mM pro-ald
Description: The following procedure was used for the bio-conversion of 3,4-dihydroxybenzaldehyde (“proaldehyde”) to vanillin and vanillyl alcohol in V. planifolia tissue culture. The medium used for cultures was G-medium as described above. Pro-ald solutions were prepared in G-medium, to final concentrations of 0.01 to 5 mM.
Cultures used for the bio-conversion were (1) clusters, (2) embryo culture, and (3) tissue homogenates of the above cultures. Cultures were of varying ages ranging from 0 to 1 month old. The cultures were allowed to remain under normal culture conditions for 0 to 15 days. As controls, untreated cultures were extracted and analyzed as described in Example 2.
Proaldehyde at different concentrations was added to the medium, either alone or in combination with the following treatments:
Bioreactor-grown cultures were used for the bio-conversions. Different kinds of impeller designs were used to increase or decrease shear stress on the cells prior to the addition of pro-ald.

[3] = tested on: V. planifolia embryo culture; experiment: Uptake of exogenously added vanillin and transformation to vanillyl alcohol in embryo culture; format: cell-based, Vanilla planifolia
Text: FIG. 3. Graph showing uptake of exogenously added vanillin and its transformation to vanillyl alcohol by vanillyl alcohol dehydrogenase in V. planifolia embryo culture. V(T)=vanillin in tissue; V(M)=vanillin in medium; VAL(T)=vanillyl alcohol in tissue; VAL(M)=vanillyl alcohol in medium.
Similarly, vanilla embryo culture that can be elicited by various elicitors to produce vanillin accumulates vanillyl alcohol as a final product. It is important to state at this stage that all the intermediates in the pathway are found mainly as glucosides.

substrate preference of VAD [1]: most preferred substrates
Activity with the compound as substrate, NADH ([1]; cofactor NADH): 1.89 nmoles · gfwt^−1 · min^−1
Activity with the compound as substrate, NADPH ([1]; cofactor NADPH): 2.11 nmoles · gfwt^−1 · min^−1
SMILES: O=Cc1ccc(O)c(O)c1 [PRO-ALD, 3,4-dihydroxybenzaldehyde]
fate of exogenously fed compound in cultured embryos (Vanilla embryo culture; feeding experiments, Example 2): rapid methylation and conversion to vanillin or vanillyl alcohol
CA (p-coumaric acid) content of culture (Vanilla embryo culture; precursor fed at 1 mM): 285 mg/100 g dry wt.
HBA (p-hydroxybenzyl alcohol) content of culture (Vanilla embryo culture; precursor fed at 1 mM): 8950 mg/100 g dry wt.
PRO-ALD (3,4-dihydroxybenzaldehyde) content of culture (Vanilla embryo culture; precursor fed at 1 mM): 433 mg/100 g dry wt.
VN (vanillin) content of culture (Vanilla embryo culture; precursor fed at 1 mM): 16.7 mg/100 g dry wt.
VN ALC (vanillyl alcohol) content of culture (Vanilla embryo culture; precursor fed at 1 mM): 286.8 mg/100 g dry wt.
increase of production of vanillin/vanillyl alcohol [2]: several hundred fold
fate of compound applied to the growing medium of embryo culture [3]: accumulation of vannilyl alcohol
